Legend:
Assay in all cases: relative viability (nuclei count vs DMSO), 5 days (fraction); higher = more cells survive
[1] = compound: C1COCCN1C2=NC(=NC3=C2OC4=C3C=CC=N4)C5=CC(=CC=C5)NC(=O)C6=CN=C(C=C6)N + COc1cccc2cc(-c3nc([C@H]4CC[C@H](C(=O)O)CC4)n4ncnc(N)c34)[nH]c12 [OSI-027] (partner 0.5 µM)
Method in brief: (§1)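 After 5 days of treatment, lung cancer cells in 1536-well plates were fixed and stained in a single step (final 0.05% Triton X-100, 1% formaldehyde, 1 ug/ml Hoechst) and their nuclei counted on 4× images. Treatment had been applied by pin tool the day after seeding as one drug alone or as a fixed anchor-drug dose with five library-drug doses (not always all listed) in √10 steps. Relative viability is the nuclei count of treated wells divided by that of vehicle wells, and values are medians of duplicate plates.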

[2] = compound: C1COCCN1C2=NC(=NC3=C2OC4=C3C=CC=N4)C5=CC(=CC=C5)NC(=O)C6=CN=C(C=C6)N + Nc1ncn([C@H]2C[C@H](O)[C@@H](CO)O2)c(=O)n1 [Decitabine] (partner 2 µM)
Method in brief: as §1

SGI-1776 + Navitoclax = compound: CN1CCC(CNc2ccc3ncc(-c4cccc(OC(F)(F)F)c4)n3n2)CC1 [SGI-1776] + CC1(C)CCC(c2ccc(Cl)cc2)=C(CN2CCN(c3ccc(C(=O)NS(=O)(=O)c4ccc(N[C@H](CCN5CCOCC5)CSc5ccccc5)c(S(=O)(=O)C(F)(F)F)c4)cc3)CC2)C1 [Navitoclax] (partner 0.5 µM)
Method in brief: as §1

SGI-1776 + AZD7762 = compound: CN1CCC(CNc2ccc3ncc(-c4cccc(OC(F)(F)F)c4)n3n2)CC1 [SGI-1776] + NC(=O)Nc1cc(-c2cccc(F)c2)sc1C(=O)N[C@H]1CCCNC1 [AZD7762] (partner 0.2 µM)
Method in brief: as §1

Cell Line	relative viability ([1]; first compound 0.02 µM)	relative viability ([1]; first compound 0.06325 µM)	relative viability ([1]; first compound 0.2 µM)	relative viability ([1]; first compound 0.6325 µM)	relative viability ([1]; first compound 2 µM)	relative viability ([2]; first compound 0.02 µM)	relative viability ([2]; first compound 0.06325 µM)	relative viability ([2]; first compound 0.2 µM)	relative viability ([2]; first compound 0.6325 µM)	relative viability ([2]; first compound 2 µM)	relative viability (SGI-1776 + Navitoclax; first compound 0.08 µM)	relative viability (SGI-1776 + Navitoclax; first compound 0.8 µM)	relative viability (SGI-1776 + Navitoclax; first compound 2.53 µM)	relative viability (SGI-1776 + Navitoclax; first compound 8 µM)	relative viability (SGI-1776 + AZD7762; first compound 0.08 µM)	relative viability (SGI-1776 + AZD7762; first compound 0.8 µM)	relative viability (SGI-1776 + AZD7762; first compound 2.53 µM)	relative viability (SGI-1776 + AZD7762; first compound 8 µM)
NCI-H1666	0.949	0.816	0.79	0.777	0.546	0.815	0.752	0.692	0.715	0.623	0.907	0.772	0.836	0.705	0.945	0.873	0.862	0.834
HARA	0.52	0.609	0.381	0.391	0.283	0.529	0.569	0.64	0.576	0.412	1.15	1.17	1.16	1.16	0.345	0.306	0.292	0.218
NCI-H1944	0.401	0.439	0.366	0.345	0.272	0.418	0.474	0.456	0.527	0.476	1.03	1.09	1.07	1.07	0.619	0.595	0.518	0.441
NCI-H2405	0.578	0.668	0.618	0.599	0.585	0.671	0.674	0.763	0.767	0.694	0.823	0.804	0.779	0.452	0.706	0.728	0.57	0.608
201T	0.858	0.743	0.72	0.515	0.851	0.864	0.856	0.872	0.862	0.785	1.19	1.24	1.23	1.17	0.581	0.604	0.644	0.657
PC-3 [JPC-3]	0.849	0.839	0.697	0.704	0.54	0.846	0.8	–	0.843	0.755	0.704	0.767	0.862	0.699	0.921	0.872	0.685	0.609
NCI-H1734	0.719	0.638	0.576	0.542	0.417	0.534	0.575	0.482	0.537	0.484	0.829	0.851	0.884	0.759	0.616	0.687	0.654	0.568
NCI-H1651	0.643	0.812	0.703	0.617	0.472	0.65	0.643	0.614	0.66	0.568	1.19	1.04	0.9	0.825	0.537	0.519	0.494	0.419
NCI-H838	0.348	0.381	0.348	0.31	0.278	0.437	0.437	0.413	0.5	0.371	1.12	1.22	1.14	0.869	0.944	0.961	0.932	0.916
NCI-H1915	0.639	0.663	0.647	0.599	0.5	0.255	0.261	0.26	0.559	0.335	0.795	0.802	0.793	0.781	0.756	0.663	0.705	0.791
ChaGo-K-1	0.529	0.566	0.523	0.586	0.466	0.563	0.544	0.517	0.601	0.458	0.849	1.23	0.624	0.716	0.892	0.875	0.912	0.859
HOP-62	0.947	0.938	0.713	0.748	0.481	0.193	0.227	0.243	0.313	0.412	1.09	1.11	1.09	0.967	0.84	0.574	0.613	0.646
NCI-H1975	0.728	0.708	0.5	0.388	0.353	0.347	0.396	0.37	0.381	0.371	1.21	1.06	0.883	0.817	0.749	0.745	0.631	0.43
BEN	0.283	0.297	0.295	0.274	0.389	0.75	0.762	0.697	0.752	0.637	0.0663	0.049	0.0583	0.0494	0.829	0.735	0.673	0.524
EMC-BAC-2	0.346	0.406	0.333	0.346	0.32	0.96	1.06	0.947	0.953	0.779	1.23	1.22	1.16	1.1	1.12	1.16	1.09	0.928
LU99A	0.308	0.288	0.241	0.274	0.267	0.864	0.745	0.937	0.806	0.445	0.903	0.782	0.898	0.81	0.38	0.384	0.339	0.294
NCI-H2347	0.384	0.504	0.367	0.355	0.311	0.603	0.657	0.651	0.755	0.575	0.886	0.787	0.808	0.673	0.825	0.912	0.81	0.692

— the supplement of paper PMC10307832
